Legend:
Palbociclib = compound: CC(=O)c1c(C)c2cnc(Nc3ccc(N4CCNCC4)cn3)nc2n(C2CCCC2)c1=O [Palbociclib]; details: max 10 µM
Method in brief: (§1)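 In 1536-well plates, cancer cell lines in 7.5 μl DMEM/F12 or RPMI with 10% FBS spent 24 hours at 37°C and 5% CO2 and were then dosed for 72 hours with final DMSO typically 0.2%. Viability was read by CellTiter-Glo 2.0 luminescence and scaled between blank-well and DMSO-well means. The single-agent IC50 was fitted from dose responses using a logistic curve in a non-linear mixed effects model, and that logistic curve had two parameters.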

Taselisib = compound: Cc1nc(-c2cn3c(n2)-c2ccc(-c4cnn(C(C)(C)C(N)=O)c4)cc2OCC3)n(C(C)C)n1 [Taselisib]; details: max 10 µM
Method in brief: as §1

Prexasertib = compound: COc1cccc(OCCCN)c1-c1cc(Nc2cnc(C#N)cn2)n[nH]1 [Prexasertib]; details: max 1 µM
Method in brief: as §1

AZD1390 = compound: CC(C)n1c(=O)n(C)c2cnc3cc(F)c(-c4ccc(OCCCN5CCCCC5)nc4)cc3c21 [AZD1390]; details: max 0.3 µM
Method in brief: as §1

Crizotinib = compound: C[C@@H](Oc1cc(-c2cnn(C3CCNCC3)c2)cnc1N)c1c(Cl)ccc(F)c1Cl [Crizotinib]; details: max 10 µM
Method in brief: as §1

Paclitaxel = compound: CC(=O)O[C@H]1C(=O)[C@@]2(C)[C@H]([C@H](OC(=O)c3ccccc3)[C@]3(O)C[C@H](OC(=O)[C@H](O)[C@@H](NC(=O)c4ccccc4)c4ccccc4)C(C)=C1C3(C)C)[C@]1(OC(C)=O)CO[C@@H]1C[C@@H]2O [Paclitaxel]; details: max 3 µM
Method in brief: as §1

Alisertib = compound: COc1cc(Nc2ncc3c(n2)-c2ccc(Cl)cc2C(c2c(F)cccc2OC)=NC3)ccc1C(=O)O [Alisertib]; details: max 10 µM
Method in brief: as §1

Doxorubicin = compound: COc1cccc2c1C(=O)c1c(O)c3c(c(O)c1C2=O)C[C@@](O)(C(=O)CO)C[C@@H]3O[C@H]1C[C@H](N)[C@H](O)[C@H](C)O1 [Doxorubicin]; details: max 1 µM
Method in brief: as §1

Carboplatin = compound: C1CC(C1)(C(=O)[O-])C(=O)[O-].N.N.[Pt+2] [Carboplatin]; details: max 10 µM
Method in brief: as §1

Venetoclax = compound: CC1(C)CCC(CN2CCN(c3ccc(C(=O)NS(=O)(=O)c4ccc(NCC5CCOCC5)c([N+](=O)[O-])c4)c(Oc4cnc5[nH]ccc5c4)c3)CC2)=C(c2ccc(Cl)cc2)C1 [Venetoclax]; details: max 1 µM
Method in brief: as §1

Gemcitabine = compound: Nc1ccn([C@@H]2O[C@H](CO)[C@@H](O)C2(F)F)c(=O)n1 [Gemcitabine]; details: max 0.3 µM
Method in brief: as §1

SN-38 = compound: CCc1c2c(nc3ccc(O)cc13)-c1cc3c(c(=O)n1C2)COC(=O)[C@]3(O)CC [SN-38]; details: max 0.3 µM
Method in brief: as §1

SG3199 = compound: CC1=CN2[C@@H](C1)C=NC3=CC(=C(C=C3C2=O)OC)OCCCCCOC4=C(C=C5C(=C4)N=C[C@@H]6CC(=CN6C5=O)C)OC [SG3199]; details: max 0.001 µM
Method in brief: as §1

Gefitinib = compound: COc1cc2ncnc(Nc3ccc(F)c(Cl)c3)c2cc1OCCCN1CCOCC1 [Gefitinib]; details: max 10 µM
Method in brief: as §1

AZD6738 = compound: C[C@@H]1COCCN1C2=NC(=NC(=C2)C3(CC3)[S@](=N)(=O)C)C4=C5C=CNC5=NC=C4 [AZD6738]; details: max 10 µM
Method in brief: as §1

5-Fluorouracil = compound: O=c1[nH]cc(F)c(=O)[nH]1 [5-Fluorouracil]; details: max 20 µM
Method in brief: as §1

AZD5363 = compound: C1CN(CCC1(C(=O)N[C@@H](CCO)C2=CC=C(C=C2)Cl)N)C3=NC=NC4=C3C=CN4 [AZD5363]; details: max 10 µM
Method in brief: as §1

AZD2811 = compound: CCN(CCO)CCCOc1ccc2c(Nc3cc(CC(=O)Nc4cccc(F)c4)[nH]n3)ncnc2c1 [AZD2811]; details: max 1 µM
Method in brief: as §1

AZD1775 = compound: C=CCn1c(=O)c2cnc(Nc3ccc(N4CCN(C)CC4)cc3)nc2n1-c1cccc(C(C)(C)O)n1 [AZD1775]; details: max 3 µM
Method in brief: as §1

[1] = compound: O=C(Nc1ccc2[nH]nc(-c3ccncc3)c2c1)[C@@H]1CCN(CC(=O)N2CCN(c3ccc(-c4ncccn4)cc3)CC2)C1; details: max 5 µM
Method in brief: as §1

AZD4320 = compound: CN(CC[C@H](CSC1=CC=CC=C1)NC2=C(C=C(C=C2)S(=O)(=O)NC(=O)C3=CC=C(C=C3)N4CCC(CC4)[C@H](C5=CC=CC=C5C6=CC=C(C=C6)Cl)O)S(=O)(=O)C(F)(F)F)CCO [AZD4320]; details: max 1 µM
Method in brief: as §1

AZD5991 = compound: Cc1c2c(nn1C)CSCc1cc(n(C)n1)CSc1cc(c3ccccc3c1)OCCCc1c(C(=O)O)n(C)c3c-2c(Cl)ccc13 [AZD5991]; details: max 1 µM
Method in brief: as §1

SRA737 = compound: N#Cc1cnc(Nc2cc(NC[C@H]3CNCCO3)c(C(F)(F)F)cn2)cn1 [SRA737]; details: max 10 µM
Method in brief: as §1

AZD0156 = compound: CN(C)CCCOc1ccc(-c2ccc3ncc4c(c3c2)n(C2CCOCC2)c(=O)n4C)cn1 [AZD0156]; details: max 3 µM
Method in brief: as §1

Lapatinib = compound: CS(=O)(=O)CCNCc1ccc(-c2ccc3ncnc(Nc4ccc(OCc5cccc(F)c5)c(Cl)c4)c3c2)o1 [Lapatinib]; details: max 10 µM
Method in brief: as §1

Etoposide = compound: COc1cc([C@@H]2c3cc4c(cc3[C@@H](O[C@@H]3O[C@@H]5CO[C@@H](C)O[C@H]5[C@H](O)[C@H]3O)[C@H]3COC(=O)[C@H]23)OCO4)cc(OC)c1O [Etoposide]; details: max 10 µM
Method in brief: as §1

Selumetinib = compound: Cn1cnc2c(F)c(Nc3ccc(Br)cc3Cl)c(C(=O)NOCCO)cc21 [Selumetinib]; details: max 10 µM
Method in brief: as §1

Trametinib = compound: CC(=O)Nc1cccc(-n2c(=O)n(C3CC3)c(=O)c3c(Nc4ccc(I)cc4F)n(C)c(=O)c(C)c32)c1 [Trametinib]; details: max 1 µM
Method in brief: as §1

MK-2206 = compound: NC1(c2ccc(-c3nc4ccn5c(=O)[nH]nc5c4cc3-c3ccccc3)cc2)CCC1 [MK-2206]; details: max 10 µM
Method in brief: as §1

AZD8186 = compound: C[C@@H](Nc1cc(F)cc(F)c1)c1cc(C(=O)N(C)C)cc2c(=O)cc(N3CCOCC3)oc12 [AZD8186]; details: max 10 µM
Method in brief: as §1

Savolitinib = compound: C[C@@H](c1ccc2nccn2c1)n1nnc2ncc(-c3cnn(C)c3)nc21 [Savolitinib]; details: max 1 µM
Method in brief: as §1

AZD5153 = compound: COc1nnc2ccc(N3CCC(c4ccc(OCCN5CCN(C)C(=O)[C@H]5C)cc4)CC3)nn12 [AZD5153]; details: max 1 µM
Method in brief: as §1

Olaparib = compound: O=C(c1cc(Cc2n[nH]c(=O)c3ccccc23)ccc1F)N1CCN(C(=O)C2CC2)CC1 [Olaparib]; details: max 10 µM
Method in brief: as §1

Dasatinib = compound: CC1=C(C(=CC=C1)Cl)NC(=O)C2=CN=C(S2)NC3=CC(=NC(=N3)C)N4CCN(CC4)CCO [Dasatinib]; details: max 2 µM
Method in brief: as §1

AZD7648 = compound: Cc1cc2ncnn2cc1Nc1ncc2c(n1)n(C1CCOCC1)c(=O)n2C [AZD7648]; details: max 10 µM
Method in brief: as §1

| Cell Line | IC50, cell viability 72 h (Palbociclib) | IC50, cell viability 72 h (Taselisib) | IC50, cell viability 72 h (Prexasertib) | IC50, cell viability 72 h (AZD1390) | IC50, cell viability 72 h (Crizotinib) | IC50, cell viability 72 h (Paclitaxel) | IC50, cell viability 72 h (Alisertib) | IC50, cell viability 72 h (Doxorubicin) | IC50, cell viability 72 h (Carboplatin) | IC50, cell viability 72 h (Venetoclax) | IC50, cell viability 72 h (Gemcitabine) | IC50, cell viability 72 h (SN-38) | IC50, cell viability 72 h (SG3199) | IC50, cell viability 72 h (Gefitinib) | IC50, cell viability 72 h (AZD6738) | IC50, cell viability 72 h (5-Fluorouracil) | IC50, cell viability 72 h (AZD5363) | IC50, cell viability 72 h (AZD2811) | IC50, cell viability 72 h (AZD1775) | IC50, cell viability 72 h [1] | IC50, cell viability 72 h (AZD4320) | IC50, cell viability 72 h (AZD5991) | IC50, cell viability 72 h (SRA737) | IC50, cell viability 72 h (AZD0156) | IC50, cell viability 72 h (Lapatinib) | IC50, cell viability 72 h (Etoposide) | IC50, cell viability 72 h (Selumetinib) | IC50, cell viability 72 h (Trametinib) | IC50, cell viability 72 h (MK-2206) | IC50, cell viability 72 h (AZD8186) | IC50, cell viability 72 h (Savolitinib) | IC50, cell viability 72 h (AZD5153) | IC50, cell viability 72 h (Olaparib) | IC50, cell viability 72 h (Dasatinib) | IC50, cell viability 72 h (AZD7648) |
| --- | --- | --- | --- | --- | --- | --- | --- | --- | --- | --- | --- | --- | --- | --- | --- | --- | --- | --- | --- | --- | --- | --- | --- | --- | --- | --- | --- | --- | --- | --- | --- | --- | --- | --- | --- |
| HMV-II (Melanoma) | > 10000 nM | 5060 nM | > 1000 nM | > 300 nM | > 10000 nM | 310 nM | > 10000 nM | 790 nM | > 10000 nM | > 1000 nM | 139 nM | 127 nM | > 1 nM | > 10000 nM | > 10000 nM | > 20000 nM | > 10000 nM | > 1000 nM | 1160 nM | 502 nM | > 1000 nM | > 1000 nM | > 10000 nM | > 3000 nM | > 10000 nM | > 10000 nM | 606 nM | 8.78 nM | > 10000 nM | > 10000 nM | > 1000 nM | 463 nM | > 10000 nM | > 2000 nM | > 10000 nM |
| HO-1-u-1 (Oral Cavity Carcinoma) | > 10000 nM | 618 nM | 28.8 nM | > 300 nM | > 10000 nM | 820 nM | 6330 nM | > 1000 nM | > 10000 nM | > 1000 nM | > 300 nM | 239 nM | > 1 nM | > 10000 nM | 3160 nM | > 20000 nM | 1310 nM | > 1000 nM | 816 nM | 4140 nM | > 1000 nM | > 1000 nM | 6170 nM | > 3000 nM | 7600 nM | > 10000 nM | > 10000 nM | > 1000 nM | > 10000 nM | > 10000 nM | > 1000 nM | > 1000 nM | > 10000 nM | 532 nM | > 10000 nM |
| Hs-633T (Other Solid Carcinomas) | > 10000 nM | 7460 nM | 81.4 nM | > 300 nM | 7000 nM | 30.4 nM | 9060 nM | 380 nM | > 10000 nM | > 1000 nM | 14.5 nM | 38.2 nM | > 1 nM | > 10000 nM | 3300 nM | > 20000 nM | > 10000 nM | > 1000 nM | 472 nM | 3360 nM | > 1000 nM | > 1000 nM | > 10000 nM | > 3000 nM | > 10000 nM | 5070 nM | > 10000 nM | 656 nM | > 10000 nM | > 10000 nM | > 1000 nM | 570 nM | > 10000 nM | 334 nM | > 10000 nM |
| K5 (Thyroid Gland Carcinoma) | > 10000 nM | 558 nM | 251 nM | > 300 nM | 9780 nM | 56.1 nM | 638 nM | 266 nM | > 10000 nM | > 1000 nM | > 300 nM | 150 nM | > 1 nM | > 10000 nM | > 10000 nM | > 20000 nM | > 10000 nM | > 1000 nM | > 3000 nM | 3880 nM | > 1000 nM | > 1000 nM | > 10000 nM | > 3000 nM | > 10000 nM | > 10000 nM | 2190 nM | 14.3 nM | > 10000 nM | > 10000 nM | > 1000 nM | 243 nM | > 10000 nM | 604 nM | > 10000 nM |
| LU-139 (Small Cell Lung Carcinoma) | > 10000 nM | > 10000 nM | 413 nM | > 300 nM | 9530 nM | 124 nM | 5740 nM | 513 nM | > 10000 nM | > 1000 nM | 29.5 nM | 39.2 nM | > 1 nM | > 10000 nM | > 10000 nM | > 20000 nM | > 10000 nM | > 1000 nM | 1210 nM | > 5000 nM | 47.4 nM | > 1000 nM | > 10000 nM | > 3000 nM | > 10000 nM | 2430 nM | > 10000 nM | > 1000 nM | > 10000 nM | > 10000 nM | > 1000 nM | 103 nM | > 10000 nM | > 2000 nM | > 10000 nM |
